From PubChem BioAssay (NCI)
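How tested: cells in 96-well plates exposed to compound for 48 hours at five concentrations. GI50 is the concentration that inhibits growth by half. At the TGI there is no net growth.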

What was measured:
Test in all cases: growth of human tumour cells (NCI), 48 h
786-0 renal = system: 786-0 renal
A498 renal = system: A498 renal
A549 NSCLC = system: A549 NSCLC
ACHN renal = system: ACHN renal
BT-549 breast = system: BT-549 breast
CAKI-1 renal = system: CAKI-1 renal
CCRF-CEM leukemia = system: CCRF-CEM leukemia
COLO 205 colon = system: COLO 205 colon
DU-145 prostate = system: DU-145 prostate
EKVX NSCLC = system: EKVX NSCLC
HCC-2998 colon = system: HCC-2998 colon
HCT-116 colon = system: HCT-116 colon
HCT-15 colon = system: HCT-15 colon
HL-60(TB) leukemia = system: HL-60(TB) leukemia
HOP-62 NSCLC = system: HOP-62 NSCLC
HOP-92 NSCLC = system: HOP-92 NSCLC
HS 578T breast = system: HS 578T breast
HT29 colon = system: HT29 colon
IGROV1 ovarian = system: IGROV1 ovarian
K-562 leukemia = system: K-562 leukemia
KM12 colon = system: KM12 colon
LOX IMVI melanoma = system: LOX IMVI melanoma
M14 melanoma = system: M14 melanoma
MALME-3M melanoma = system: MALME-3M melanoma
MCF7 breast = system: MCF7 breast
MDA-MB-231 breast = system: MDA-MB-231 breast
MDA-MB-435 = system: MDA-MB-435
MOLT-4 leukemia = system: MOLT-4 leukemia
NCI-H226 lung = system: NCI-H226 lung
NCI-H23 lung = system: NCI-H23 lung
NCI-H460 lung = system: NCI-H460 lung
NCI-H522 lung = system: NCI-H522 lung
NCI/ADR-RES ovarian = system: NCI/ADR-RES ovarian
OVCAR-3 ovarian = system: OVCAR-3 ovarian
OVCAR-4 ovarian = system: OVCAR-4 ovarian
OVCAR-5 ovarian = system: OVCAR-5 ovarian
OVCAR-8 ovarian = system: OVCAR-8 ovarian
PC-3 prostate = system: PC-3 prostate
RPMI-8226 leukemia = system: RPMI-8226 leukemia
RXF 393 renal = system: RXF 393 renal
SF-268 CNS = system: SF-268 CNS
SF-295 CNS = system: SF-295 CNS
SF-539 CNS = system: SF-539 CNS
SK-MEL-2 melanoma = system: SK-MEL-2 melanoma
SK-MEL-28 melanoma = system: SK-MEL-28 melanoma
SK-MEL-5 melanoma = system: SK-MEL-5 melanoma
SK-OV-3 ovarian = system: SK-OV-3 ovarian
SN12C renal = system: SN12C renal
SNB-19 CNS = system: SNB-19 CNS
SR leukemia = system: SR leukemia
SW-620 colon = system: SW-620 colon
T-47D breast = system: T-47D breast
TK-10 renal = system: TK-10 renal
U251 CNS = system: U251 CNS
UACC-257 melanoma = system: UACC-257 melanoma
UACC-62 melanoma = system: UACC-62 melanoma
UO-31 renal = system: UO-31 renal

Cc1ccc(C2=Nc3c(N)nc(N)nc3NC(c3cccc(Nc4ccnc5cc(C(F)(F)F)ccc45)c3)C2)cc1 (centres undefined)
GI50 (786-0 renal): 1510 nM
TGI (786-0 renal): 2900 nM
GI50 (A498 renal): 2150 nM
TGI (A498 renal): 8020 nM
GI50 (A549 NSCLC): 2880 nM
TGI (A549 NSCLC): 10700 nM
GI50 (ACHN renal): 2800 nM
TGI (ACHN renal): 11100 nM
GI50 (BT-549 breast): 1660 nM
TGI (BT-549 breast): 3360 nM
GI50 (CAKI-1 renal): 2290 nM
TGI (CAKI-1 renal): 8710 nM
GI50 (CCRF-CEM leukemia): 2210 nM
TGI (CCRF-CEM leukemia): 5730 nM
GI50 (COLO 205 colon): 1710 nM
TGI (COLO 205 colon): 3680 nM
GI50 (DU-145 prostate): 2780 nM
TGI (DU-145 prostate): 6520 nM
GI50 (EKVX NSCLC): 2910 nM
TGI (EKVX NSCLC): 11500 nM
GI50 (HCC-2998 colon): 1770 nM
TGI (HCC-2998 colon): 3330 nM
GI50 (HCT-116 colon): 1610 nM
TGI (HCT-116 colon): 2960 nM
GI50 (HCT-15 colon): 1760 nM
TGI (HCT-15 colon): 3570 nM
GI50 (HL-60(TB) leukemia): 2380 nM
TGI (HL-60(TB) leukemia): 5540 nM
GI50 (HOP-62 NSCLC): 2660 nM
TGI (HOP-62 NSCLC): 9400 nM
GI50 (HOP-92 NSCLC): 1350 nM
TGI (HOP-92 NSCLC): 2900 nM
GI50 (HS 578T breast): 1660 nM
TGI (HS 578T breast): 4460 nM
GI50 (HT29 colon): 2460 nM
TGI (HT29 colon): 5890 nM
GI50 (IGROV1 ovarian): 1890 nM
TGI (IGROV1 ovarian): 4770 nM
GI50 (K-562 leukemia): 1370 nM
TGI (K-562 leukemia): 6980 nM
GI50 (KM12 colon): 1710 nM
TGI (KM12 colon): 3630 nM
GI50 (LOX IMVI melanoma): 1740 nM
TGI (LOX IMVI melanoma): 3300 nM
GI50 (M14 melanoma): 1720 nM
TGI (M14 melanoma): 3430 nM
GI50 (MALME-3M melanoma): 1860 nM
TGI (MALME-3M melanoma): 3870 nM
GI50 (MCF7 breast): 1840 nM
TGI (MCF7 breast): 4990 nM
GI50 (MDA-MB-231 breast): 1670 nM
TGI (MDA-MB-231 breast): 3260 nM
GI50 (MDA-MB-435): 1200 nM
TGI (MDA-MB-435): 2630 nM
GI50 (MOLT-4 leukemia): 2430 nM
TGI (MOLT-4 leukemia): 6430 nM
GI50 (NCI-H226 lung): 4880 nM
TGI (NCI-H226 lung): 22300 nM
GI50 (NCI-H23 lung): 2180 nM
TGI (NCI-H23 lung): 5580 nM
GI50 (NCI-H460 lung): 1870 nM
TGI (NCI-H460 lung): 3680 nM
GI50 (NCI-H522 lung): 1560 nM
TGI (NCI-H522 lung): 3490 nM
GI50 (NCI/ADR-RES ovarian): 2290 nM
TGI (NCI/ADR-RES ovarian): 6150 nM
GI50 (OVCAR-3 ovarian): 1780 nM
TGI (OVCAR-3 ovarian): 3530 nM
GI50 (OVCAR-4 ovarian): 3020 nM
TGI (OVCAR-4 ovarian): 14000 nM
GI50 (OVCAR-5 ovarian): 3690 nM
TGI (OVCAR-5 ovarian): 15700 nM
GI50 (OVCAR-8 ovarian): 2310 nM
TGI (OVCAR-8 ovarian): 5600 nM
GI50 (PC-3 prostate): 1590 nM
TGI (PC-3 prostate): 4380 nM
GI50 (RPMI-8226 leukemia): 1900 nM
TGI (RPMI-8226 leukemia): 4700 nM
GI50 (RXF 393 renal): 1410 nM
TGI (RXF 393 renal): 2870 nM
GI50 (SF-268 CNS): 1930 nM
TGI (SF-268 CNS): 4190 nM
GI50 (SF-295 CNS): 1560 nM
TGI (SF-295 CNS): 3170 nM
GI50 (SF-539 CNS): 1770 nM
TGI (SF-539 CNS): 3490 nM
GI50 (SK-MEL-2 melanoma): 1950 nM
TGI (SK-MEL-2 melanoma): 4050 nM
GI50 (SK-MEL-28 melanoma): 1700 nM
TGI (SK-MEL-28 melanoma): 3330 nM
GI50 (SK-MEL-5 melanoma): 1600 nM
TGI (SK-MEL-5 melanoma): 2980 nM
GI50 (SK-OV-3 ovarian): 3560 nM
TGI (SK-OV-3 ovarian): 13400 nM
GI50 (SN12C renal): 2030 nM
TGI (SN12C renal): 4710 nM
GI50 (SNB-19 CNS): 2270 nM
TGI (SNB-19 CNS): 7080 nM
GI50 (SR leukemia): 1530 nM
TGI (SR leukemia): 5440 nM
GI50 (SW-620 colon): 1700 nM
TGI (SW-620 colon): 3520 nM
GI50 (T-47D breast): 2220 nM
TGI (T-47D breast): 8730 nM
GI50 (TK-10 renal): 4110 nM
TGI (TK-10 renal): 16500 nM
GI50 (U251 CNS): 1820 nM
TGI (U251 CNS): 3620 nM
GI50 (UACC-257 melanoma): 2120 nM
TGI (UACC-257 melanoma): 4420 nM
GI50 (UACC-62 melanoma): 1700 nM
TGI (UACC-62 melanoma): 3460 nM
GI50 (UO-31 renal): 1510 nM
TGI (UO-31 renal): 3030 nM
